# ChEMBL document CHEMBL1128947, “Asiaticoside mimetics as wound healing agent” (1996)
# How the values were obtained:
# [1] = organism: Rattus norvegicus; test: Tested for its effect on the wound healing in rats at 7th postoperative day by measuring tensile strength of skin strips from the wound segments; value relative to control(100); type: functional
# [2] = organism: Rattus norvegicus; test: Effect on the wound healing in rats at 7th postoperative day by measuring tensile strength of skin strips from the wound segments; type: functional
smiles,measurement,setting,value
COCCOCOC(=O)[C@]12CC[C@@H](C)[C@H](C)C1C1=CCC3[C@@]4(C)C[C@@H](O)[C@H](O)[C@@](C)(CO)C4CC[C@@]3(C)[C@]1(C)CC2 (stereo not given in full),Relative value,[1],139
same,Tensile strength,[2],398 g cm**-2
CCCCOC(C)OC(=O)[C@]12CC[C@@H](C)[C@H](C)C1C1=CCC3[C@@]4(C)C[C@@H](O)[C@H](O)[C@@](C)(CO)C4CC[C@@]3(C)[C@]1(C)CC2 (stereo not given in full),Relative value,[1],126
same,Tensile strength,[2],362 g cm**-2
C[C@@H]1CC[C@]2(C(=O)O)CC[C@]3(C)C(=CCC4[C@@]5(C)C[C@@H](O)[C@H](O)[C@@](C)(CO)C5CC[C@]43C)C2[C@H]1C (stereo not given in full),Relative value,[1],146
same,Tensile strength,[2],418 g cm**-2
C[C@@H]1CC[C@]2(C(=O)OC3CCCCO3)CC[C@]3(C)C(=CCC4[C@@]5(C)C[C@@H](O)[C@H](O)[C@@](C)(CO)C5CC[C@]43C)C2[C@H]1C (stereo not given in full),Relative value,[1],168
same,Tensile strength,[2],481 g cm**-2
COCOC(=O)[C@]12CC[C@@H](C)[C@H](C)C1C1=CCC3[C@@]4(C)C[C@@H](O)[C@H](O)[C@@](C)(CO)C4CC[C@@]3(C)[C@]1(C)CC2 (stereo not given in full),Relative value,[1],141
same,Tensile strength,[2],404 g cm**-2
CC(=O)OC[C@@]1(C)C2CC[C@]3(C)C(CC=C4C5[C@@H](C)[C@H](C)CC[C@]5(C(=O)OC5CCCCO5)CC[C@]43C)[C@@]2(C)C[C@@H](OC(C)=O)[C@@H]1OC(C)=O (stereo not given in full),Relative value,[1],173
same,Tensile strength,[2],393 g cm**-2
CCOCOC(=O)[C@]12CC[C@@H](C)[C@H](C)C1C1=CCC3[C@@]4(C)C[C@@H](O)[C@H](O)[C@@](C)(CO)C4CC[C@@]3(C)[C@]1(C)CC2 (stereo not given in full),Relative value,[1],166
same,Tensile strength,[2],476 g cm**-2
COCCOCOC(=O)[C@]12CC[C@@H](C)[C@H](C)C1C1=CCC3[C@@]4(C)C[C@@H](OC(C)=O)[C@H](OC(C)=O)[C@@](C)(COC(C)=O)C4CC[C@@]3(C)[C@]1(C)CC2 (stereo not given in full),Relative value,[1],141
same,Tensile strength,[2],320 g cm**-2
CCOCOC(=O)[C@]12CC[C@@H](C)[C@H](C)C1C1=CCC3[C@@]4(C)C[C@@H](OC(C)=O)[C@H](OC(C)=O)[C@@](C)(COC(C)=O)C4CC[C@@]3(C)[C@]1(C)CC2 (stereo not given in full),Relative value,[1],215
same,Tensile strength,[2],487 g cm**-2
CCOC(C)OC(=O)[C@]12CC[C@@H](C)[C@H](C)C1C1=CCC3[C@@]4(C)C[C@@H](O)[C@H](O)[C@@](C)(CO)C4CC[C@@]3(C)[C@]1(C)CC2 (stereo not given in full),Relative value,[1],135
same,Tensile strength,[2],387 g cm**-2
C[C@@H]1CC[C@]2(C(=O)OCOCc3ccccc3)CC[C@]3(C)C(=CCC4[C@@]5(C)C[C@@H](O)[C@H](O)[C@@](C)(CO)C5CC[C@]43C)C2[C@H]1C (stereo not given in full),Relative value,[1],114
same,Tensile strength,[2],327 g cm**-2
COCOC(=O)[C@]12CC[C@@H](C)[C@H](C)C1C1=CCC3[C@@]4(C)C[C@@H](OC(C)=O)[C@H](OC(C)=O)[C@@](C)(COC(C)=O)C4CC[C@@]3(C)[C@]1(C)CC2 (stereo not given in full),Relative value,[1],145
same,Tensile strength,[2],330 g cm**-2
CC(=O)OC[C@@]1(C)C2CC[C@]3(C)C(CC=C4C5[C@@H](C)[C@H](C)CC[C@]5(C(=O)OC5CCCO5)CC[C@]43C)[C@@]2(C)C[C@@H](OC(C)=O)[C@@H]1OC(C)=O (stereo not given in full),Relative value,[1],145
same,Tensile strength,[2],331 g cm**-2
CCCCCCCCOCOC(=O)[C@]12CC[C@@H](C)[C@H](C)C1C1=CCC3[C@@]4(C)C[C@@H](OC(C)=O)[C@H](OC(C)=O)[C@@](C)(COC(C)=O)C4CC[C@@]3(C)[C@]1(C)CC2 (stereo not given in full),Relative value,[1],137
same,Tensile strength,[2],310 g cm**-2
CCCCCCCCOCOC(=O)[C@]12CC[C@@H](C)[C@H](C)C1C1=CCC3[C@@]4(C)C[C@@H](O)[C@H](O)[C@@](C)(CO)C4CC[C@@]3(C)[C@]1(C)CC2 (stereo not given in full),Relative value,[1],163
same,Tensile strength,[2],468 g cm**-2
